Measured values taken from patent US20140378551A1, “Composition for the Prophylactic Treatment of Neuropathic Pain” (Universite d'Auvergne, priority 2011, published 2014).
Where a name gives a salt, the structure may show the parent alone.

How the values were obtained:
[1] = tested on: mechanical hyperalgesia induced by diabetes; experiment: Chronic intrathecal treatment, mechanical hyperalgesia induced by diabetes; type: in vivo; conditions: chronic treatment administered intrathecally
From the text: (§1) It is relatively better tolerated by patients.

[2] = tested on: Tyr^1472 residue of the NR2B sub-unit of the NMDA receptor; experiment: Chronic intrathecal treatment, phosphorylation of Tyr1472 residue in diabetes pain context; type: in vivo; conditions: chronic treatment administered intrathecally
From the text: as §1

[3] = doses of 5 to 30 mg memantine hydrochloride (Sang et al., 2002); cited from earlier work

| Compound | mechanical hyperalgesia induced by diabetes [1] | phosphorylation of the Tyr1472 residue [2] | tolerance by patients [3] |
| --- | --- | --- | --- |
| CC(C)(C)n1nc(-c2ccc(Cl)cc2)c2c(N)ncnc21 [PP2, 4-amino-5-(4-chlorophenyl)-7-(dimethylethyl) pyrazolo [3,4-d] pyrimidine] | abolishes the mechanical hyperalgesia induced by diabetes | reduces phosphorylation of the Tyr^1472 residue | – |
| CC12CC3CC(C)(C1)CC(N)(C3)C2 [memantine hydrochloride] | – | – | well supported and tolerated by the patients |
